Results: patent US8969249B2, “Synthesis and biological activity of bicyclic ABA analogs” (National Research Council of Canada, priority 2004, dated 2015)

Assays:
[1] = tested on: suspension-cultured cells of maize (Black Mexican Sweet); test: growth inhibition assay using suspension-cultured corn cells; format: cell-based; conditions: for inhibition of growth of suspension-cultured maize cells: dose-dependent over concentration range 0.1-10.0 μM
Source text: In yet another embodiment, a process for inhibiting plant cell growth using the bicyclic ABA and analogs of the present invention is described. The ability of bicyclic ABA and analogs of the present invention to inhibit plant cell growth may be assayed with a growth inhibition assay. In one assay, suspension-cultured corn cells are used in a well characterized experimental system that has been useful for comparing the biological activity and metabolism of ABA and ABA analogs (6).
The growth inhibition assay using suspension-cultured corn cells is a well characterized experimental system that has been very useful for comparing the biological activity and metabolism of ABA and ABA analogs (6).
Maize cell cultures were treated as described by Balsevich et. al. (6). The cultures were incubated on a rotary shaker for 4 days, and the cells were separated from the medium by vacuum filtration and weighed immediately. The effect of ABA and bicyclic ABA on cell growth was determined at various concentrations (0-10 μM) by calculating the percentage increase in fresh weight [(final weight×100/initial weight)−100)]. Measurements were performed in triplicate and average values were normalized to a control (untreated) value of 100%.

[2] = tested on: Arabidopsis thaliana (Columbia wild type) seeds; test: seed germination inhibition assay; format: in vivo; conditions: for germination index: lowest concentration of 0.33 μM
Procedure: (§1) In yet an additional embodiment, bicyclic ABA and analogs of the present invention may be used in a process for inhibiting seed germination. In one embodiment, bicyclic ABA is used in a germination assay of Arabidopsis thaliana (Columbia wild type) seeds over a wide range of concentrations (0.33-33 μM). Similar treatments were performed for ABA [1] (both enantiomers) to allow for a direct comparison between ABA and bicyclic ABA (both enantiomers). The results are expressed in terms of germination indices, which summarize the rate and extent of germination over the time of the experiment at a given concentration. […] At the lowest concentration of 0.33 μM, the germination index for (+)-ABA (1) was almost 0.4, compared with less than 0.1 in the case of (+) bicyclic ABA [8].
as §1, with “Bicyclic” for “In yet an additional embodiment, bicyclic”, “produced using the process” for “and analogs”, “was also studied” for “may be used in a process for inhibiting seed germination. In one embodiment, bicyclic ABA is used”, “μM) (FIG. 7).” for “μM).”, “[1]” for “(1)”, “[8]. […] It was only active at concentrations of ≧1 μM.” for “[8].”
Arabidopsis thaliana (Columbia wild type) seed germination inhibition studies were performed as described by Cutler et. al. (23). The treatments were performed in duplicate with 50 seeds per plate and incubated at 24° C. with 16 hr days and 8 hr nights for the duration of the test (7 days).

Compound	inhibitory activity (cell growth) relative to (+)-ABA ([1]; BMS maize suspension cells, 4 days, FIG. 6)	inhibition of growth of suspension-cultured maize cells [1]	germination inhibition compared with comparator (in words) ([2]; (+)-[8] versus (+) ABA, (−)-[8] versus (+)-[8])	inhibition of seed germination (in words) ([2]; all concentrations (0.33-33 μM), 7-day test period)	germination index ([2]; 7-day test)	concentrations at which active/effective in inhibiting germination ([2]; tested 0.33-33 μM, 7-day test)
CC(=C/C(=O)O)/C=C/[C@@]1(O)c2ccccc2C(=O)CC1(C)C [(+)-[8], (2Z,4E)-5-((1S)-1-Hydroxy-2,2-dimethyl-4-oxo-1,2,3,4-tetrahydro-naphthalen-1-yl)-3-methyl-penta-2,4-dienoic acid]	~10 fold	inhibited the growth	more effective germination inhibitor than (+) ABA	highly effective	less than 0.1	–
CC1=CC(=O)CC(C)(C)C1(O)/C=C/C(C)=C\C(=O)O (single isomer, unassigned; (+)) [(+)-ABA, abscisic acid, reference compound]	–	inhibited the growth	–	–	~0.4	–
abscisic acid [(−) enantiomer of ABA [1], reference compound]	–	–	–	–	–	≥ 3.33 µM
